Experimental data from patent publication US10577373B2, “TYK2 inhibitors and uses thereof” (Nimbus Lakshmi, Inc., priority 2017, dated 2020).
Where two headings read alike, the source gives them in different places.

Assays:
[1] = test system: IL-12 induced STAT4 phophorylation mediated by Tyk2/JAK2 (heterodimeric complex); assay: IL-12 Induced pSTAT4 in Human PBMC; assay type: cell-based; details: 1.7 ng/mL IL-12
Text: The IL-12 Induced pSTAT4 assay evaluates the inhibition of IL-12 induced STAT4 phophorylation mediated by Tyk2/JAK2 (heterodimeric complex).

[2] = test system: GM-CSF induced STAT5 phosphorylation mediated by the JAK2/JAK2 homdimeric complex; assay: GM-CSF Induced pSTAT5 in Human PBMC; details: GM-CSF 5 ng/mL for 20 minutes, pSTAT5
Text: Human PBMC are isolated from buffy coat and are stored frozen for assays as needed.

[3] = Homo sapiens, PBMC, 20 min, read-out: PBMC_GMCSF_pSTAT5 IC50, human PBMC
[4] = read-out: PBMC_GMCSF_pSTAT5 IC50, human PBMC

Structure (SMILES) | IC50 [1] | IC50 [2, 3] | IC50 [2, 4]
CNc1cc(Nc2cccn([C@H]3CC[C@H](OC)CC3)c2=O)nc2c(C(=O)NCC3(CO)CC3)cnn12 [I-545] | 100 to 500 nM | > 2500 nM | 
CNc1cc(Nc2cc(Cl)cn(C3CCOCC3)c2=O)nc2c(C(=O)N[C@@H]3CC[C@H]3O)cnn12 [I-825] | < 100 nM | > 50000 nM | 
CNc1cc(Nc2cc(Cl)cn(C3CCCOC3)c2=O)nc2c(C(=O)NC3CC3)cnn12 (stereo not shown) [I-711] | < 100 nM | > 50000 nM | 
CNc1cc(Nc2cccnc2OC(F)F)nc2c(C(=O)N[C@H]3C[C@H]3F)cnn12 [I-153] | < 100 nM | > 12500 nM | 
[2H]C([2H])([2H])Oc1ncccc1Nc1cc(NC)n2ncc(C(=O)N[C@H]3CC[C@@H]3O)c2n1 [I-373] | < 100 nM | > 50000 nM | 
CNc1cc(Nc2cc(Cl)cn(-c3ccn(C4CC4)n3)c2=O)nc2c(C(=O)N[C@H]3C[C@H]3F)cnn12 [I-332] | < 100 nM | > 2500 nM | 
CCONC(=O)c1cnn2c(NC)cc(Nc3cccnc3OC)nc12 [I-409, N-ethoxy-5-((2-methoxypyridin-3-yl)amino)-7-(methylamino)pyrazolo[1,5-a]pyrimidine-3-carboxamide] | < 100 nM | > 12500 nM | 
CNc1cc(Nc2cccnc2OC)nc2c(C(=O)N[C@@H]3CC[C@H]3O)cnn12 (stereo in doubt) [I-363, N-((1R,2R)-2-hydroxycyclobutyl)-5-((2-methoxypyridin-3-yl)amino)-7-(methylamino)pyrazolo[1,5-a]pyrimidine-3-carboxamide] | < 100 nM |  | > 50000 nM
CNc1cc(Nc2cccc(N3CCCC3=O)n2)nc2c(C(=O)NC3CC3)cnn12 [I-7] | < 100 nM | > 12500 nM | 
CNc1cc(Nc2cccc3ocnc23)nc2c(C(=O)NCC(C)(C)CO)cnn12 [I-750] | < 100 nM | > 2500 nM | 
[2H]C([2H])([2H])Oc1ncccc1Nc1cc(NC)n2ncc(C(=O)N[C@H]3CC[C@H]3O)c2n1 (stereo in doubt) [I-399, N-((1 S,2R)-2-hydroxycyclobutyl)-5-((2-(methoxy-d3)pyridin-3-yl)amino)-7-(methylamino) pyrazolo[1,5-a]pyrimidine-3-carboxamide] | < 100 nM |  | > 12500 nM
CNc1cc(Nc2cccn(C3CCC4(CC3)OCCO4)c2=O)nc2c(C(=O)N[C@@H]3C[C@@H]3F)cnn12 [I-415, N-((1R,2S)-2-fluorocyclopropyl)-7-(methylamino)-5-((2-oxo-1-(1,4-dioxaspiro 14.51 decan-8-yl)-1,2-dihydropyridin-3-yl)amino)pyrazolo[1,5-a]pyrimidine-3-carboxamide] | < 100 nM | > 50000 nM | 
CNc1cc(Nc2cccn(-c3ccn(C)n3)c2=O)nc2c(C(=O)NC3CC3)cnn12 [I-294] | < 100 nM | > 12500 nM | 
CNc1cc(-c2cn(C(C)C)c3ncccc23)nc2c(C(=O)N[C@@H]3CC[C@H]3O)cnn12 [I-640] | < 100 nM | > 12500 nM | 
CNc1cc(Nc2cccn(C3CCC4(CC3)OCCO4)c2=O)nc2c(C(=O)NC3CC3)cnn12 [I-393] | < 100 nM | > 12500 nM | 
[2H]C([2H])([2H])Oc1ncc(C)cc1Nc1cc(NC)n2ncc(C(=O)NC3CC3)c2n1 [I-258] | < 100 nM | > 50000 nM | 
[2H]C([2H])([2H])Nc1cc(Nc2cccnc2OC)nc2c(C(=O)N[C@@H]3C[C@@H]3F)cnn12 (stereo in doubt) [I-374, N-((1R,2S)-2-fluorocyclopropyl)-5-((2-methoxypyridin-3-yl)amino)-7-((methyl-d3)amino)pyrazolo[1,5-a]pyrimidine-3-carboxamide] | < 100 nM | > 50000 nM | 
CNc1cc(-c2cn(C(C)C)c3ncccc23)nc2c(C(=O)N[C@@H]3COC[C@@H]3O)cnn12 [I-842, N-((3R,4R)-4-hydroxytetrahydrofuran-3-yl)-5-(1-isopropyl-1H-pyrrolo[2,3-b]pyridin-3-yl)-7-(methylamino)pyrazolo[1,5-a]pyrimidine-3-carboxamide] | < 100 nM | > 50000 nM | 
CNc1cc(Nc2cccn(C3CCOCC3)c2=O)nc2c(C(=O)NC3CC3)cnn12 [I-329] | < 100 nM | > 2500 nM | 
CNc1cc(Nc2cccn(C3CCCCC3)c2=O)nc2c(C(=O)N[C@@H]3CC[C@H]3O)cnn12 [I-943] | < 100 nM | > 50000 nM | 
CNc1cc(Nc2cccc(N3CCOCC3)n2)nc2c(C(=O)N[C@H]3C[C@H]3F)cnn12 [I-590] | < 100 nM | > 12500 nM | 
CNc1cc(Nc2cc(F)ccc2F)nc2c(C(=O)NC3CC3)cnn12 [I-3] | < 100 nM | > 12500 nM | 
CNc1cc(Nc2cccn(-c3ccc(C)nn3)c2=O)nc2c(C(=O)NC3CCC3)cnn12 [I-141] | < 100 nM | > 50000 nM | 
CNc1cc(Nc2cccc3ocnc23)nc2c(C(=O)N[C@@H]3CC[C@@H]3O)cnn12 [I-661] | < 100 nM |  | > 12500 nM

Structure (SMILES) | IC50 [1] | IC50 [2, 3] | IC50 [2, 4]
CNc1cc(Nc2cccnc2OC)nc2c(C(=O)N[C@H]3C[C@@H]3O)cnn12 [I-438, N-((1S,2S)-2-hydroxycyclopropyl)-5-((2-methoxypyridin-3-yl)amino)-7-(methylamino)pyrazolo[1,5-a]pyrimidine-3-carboxamide] | < 100 nM | > 50000 nM | 
CNc1cc(Nc2cccn(C3CCOCC3)c2=O)nc2c(C(=O)N[C@H]3C[C@H]3F)cnn12 [I-330] | < 100 nM | > 2500 nM | 
CNc1cc(Nc2cccn([C@H]3CC[C@@H](OC)CC3)c2=O)nc2c(C(=O)N[C@H]3C[C@H]3F)cnn12 [I-357] | < 100 nM | > 2500 nM | 
CNc1cc(Nc2cccn(-c3ccnc(C)n3)c2=O)nc2c(C(=O)N[C@@H]3C[C@@H]3F)cnn12 (stereo in doubt) [I-124, N-((1R,2S)-2-fluorocyclopropyl)-7-(methylamino)-5-((1-(2-methylpyrimidin-4-yl)-2-oxo-1,2-dihydropyridin-3-yl)amino)pyrazolo[1,5-a]pyrimidine-3-carboxamide] | < 100 nM | > 12500 nM | 
CNc1cc(Nc2cccnc2OC2CC2)nc2c(C(=O)NC3CCC3O)cnn12 (stereo in doubt) [I-366, 5-((2-cyclopropoxypyridin-3-yl)amino)-N-((1R,2R)-2-hydroxycyclobutyl)-7-(methylamino)pyrazolo[1,5-a]pyrimidine-3-carboxamide] | < 100 nM | > 50000 nM | 
CNc1cc(Nc2cccn(-c3ccc(F)cc3)c2=O)nc2c(C(=O)N[C@H]3C[C@H]3F)cnn12 [I-132] | < 100 nM | > 2500 nM | 
CNc1cc(Nc2cccn(-c3ncco3)c2=O)nc2c(C(=O)NC3CC3)cnn12 [I-715] | < 100 nM | > 2500 nM | 
CNc1cc(Nc2cccn(-c3ncccc3F)c2=O)nc2c(C(=O)NCC(C)(C)CO)cnn12 [I-510] | < 100 nM | > 50000 nM | 
CNc1cc(Nc2cccn(-c3nc(C)co3)c2=O)nc2c(C(=O)NC3CC3)cnn12 [I-368] | < 100 nM | > 12500 nM | 
[2H]C([2H])([2H])Oc1ncccc1Nc1cc(NC)n2ncc(C(=O)NCC(C)(C)CO)c2n1 [I-347] | < 100 nM | > 50000 nM | 
CNc1cc(Nc2cccn(-c3ccc(N4CCOCC4)cc3)c2=O)nc2c(C(=O)N[C@H]3C[C@H]3F)cnn12 [I-135] | < 100 nM | > 2500 nM | 
CNc1cc(Nc2cccn(-c3ocnc3C)c2=O)nc2c(C(=O)N[C@@H]3C[C@@H]3F)cnn12 [I-790] | < 100 nM | > 12500 nM | 
CNc1cc(Nc2cccn([C@H]3CC[C@H](OC)CC3)c2=O)nc2c(C(=O)N[C@@H]3CC[C@H]3O)cnn12 [I-635] | < 100 nM | > 50000 nM | 
CNc1cc(Nc2cccn(C3CCN(CC(F)F)CC3)c2=O)nc2c(C(=O)NC3CCC3)cnn12 [I-192] | < 100 nM | > 12500 nM | 
CNc1cc(Nc2cccnc2OC(F)F)nc2c(C(=O)NC3CCC3)cnn12 [I-151] | < 100 nM | > 50000 nM | 
CNc1cc(Nc2cccn(-c3cccnc3)c2=O)nc2c(C(=O)N[C@@H]3C[C@@H]3F)cnn12 [I-748] | < 100 nM | > 2500 nM | 
CNc1cc(Nc2cccn(-c3cnn(C)c3)c2=O)nc2c(C(=O)NC3CC3)cnn12 [I-295] | < 100 nM | > 50000 nM | 
CNc1cc(Nc2cccn(-c3ccc(F)cc3)c2=O)nc2c(C(=O)NC3CCC3)cnn12 [I-246] | < 100 nM | > 2500 nM | 
CNc1cc(Nc2cccn(-c3nc(C)co3)c2=O)nc2c(C(=O)NC3CCC3)cnn12 [I-386] | < 100 nM | > 50000 nM | 
CNc1cc(Nc2cccn([C@H]3CC[C@H](OC)CC3)c2=O)nc2c(C(=O)N[C@H]3C[C@H]3F)cnn12 [I-344] | < 100 nM | > 12500 nM | 
CNc1cc(-c2cn(C(C)C)c3ncccc23)nc2c(C(=O)N[C@H]3C[C@H](O)C3)cnn12 [I-630, N-((1r,3r)-3-hydroxycyclobutyl)-5-(1-isopropyl-1H-pyrrolo[2,3-b]pyridin-3-yl)-7-(methylamino)pyrazolo[1,5-a]pyrimidine-3-carboxamide] | < 100 nM | > 2500 nM | 
CNc1cc(Nc2cc(Cl)cn(-c3ccc(C4CC4)nn3)c2=O)nc2c(C(=O)N[C@H]3C[C@H]3F)cnn12 [I-334] | < 100 nM | > 50000 nM | 
CNc1cc(-c2cn(C(C)C)c3ncccc23)nc2c(C(=O)N[C@@H]3CC[C@H]3O)cnn12 (stereo in doubt) [I-586, N-((1R,2R)-2-hydroxycyclobutyl)-5-(1-isopropyl-1H-pyrrolo[2,3-b]pyridin-3-yl)-7-(methylamino)pyrazolo[1,5-a]pyrimidine-3-carboxamide] | < 100 nM |  | > 50000 nM
